Source: US20230398080A1, “FLOATING DRUG DELIVERY SYSTEMS COMPRISING CANNABINOIDS” (YISSUM RESEARCH DEVELOPMENT COMP ANY OF THE HEBREW …, priority 2020, published 2023)

Assay: THC-CBD-Metoprolol intra-colon vs oral administration in the freely moving rat model
Conditions: for absorption through the colon in comparison to PO administration: lipid-based self-nano emulsifying formulation via colonic cannula vs PO, CBD 15 mg/kg, THC 20 or 10 mg/kg

Row | Structure (SMILES) | AUC after administration through the colon in comparison to PO administration (colonic cannula vs PO, metoprolol 20 or 15 mg/kg) | absorption through the colon in comparison to PO administration
1 | COCCc1ccc(OCC(O)CNC(C)C)cc1 (stereo not drawn) [Metoprolol] | approximately 4 fold | –
2 | C=C(C)[C@@H]1CCC(C)=C[C@H]1c1c(O)cc(CCCCC)cc1O [CBD, cannabidiol] | – | practically not absorbed through the colon
3 | CCCCCc1cc(O)c2c(c1)OC(C)(C)[C@@H]1CCC(C)=C[C@@H]21 [THC, tetrahydrocannabinol] | – | practically not absorbed through the colon
